# Test results reported in patent US11229651B2, “Prophylaxis and treatment of a neurodegenerative disease not based on a protein-folding disorder” (Eberhard Karls Universität Tübingen Medizinische Fakultät, priority 2013, dated 2022).
# What was measured:
# [1] = test system: photoreceptors of cultivated retinas from wild-type rats; experiment: TUNEL assay on retinal organ cultures from wild-type rats; assay type: cell-based, rat; details: for reduction of percentage of TUNEL positive cells in the ONL: WT cultivated retinas, compared with controls, FIG. 3B, **p<0.01, ***p<0.001; for survival of photoreceptors in radial sections: wild-type retinal organ cultures, compared with DMSO control, FIG. 2
# [2] = test system: photoreceptors of cultivated retinas from rats mutated in the rhodopsin (P23H); experiment: TUNEL assay on retinal organ cultures from P23H rhodopsin transgenic rats; assay type: cell-based, rat; details: for amount of dying photoreceptors (percentage of TUNEL positive cells in the outer nuclear layer (ONL) vs total nuclei in the ONL): P23H mutant retinal cultures, PN9 + 6 days in vitro, compared with untreated and DMSO treated controls, FIG. 3A; for survival of photoreceptors in radial sections: P23H retinal organ cultures, compared with DMSO control, FIG. 2
# Text: Homozygous P23H rhodopsin transgenic rats (produced by Chrysalis DNX Transgenic Sciences, Princeton, N.J., United States of America) of the line Tg (P23H) 1 Lay (P23H-1) were kindly provided by Dr. M. M. LaVail (University of California, San Francisco, Calif., United States of America) and bred in the Animal Housing Facility in the Center for Ophthalmology in Tübingen. Heterozygous P23H rats were employed, obtained by crossing with wt, CD rats (CDH IGS rat; Charles River, Germany) to reflect the genetic background of autosomal-dominant retinitis pigmentosa (ADRP).
# Retinas of postnatal day 9 (PN9) of P23H transgenic rats were cultivated for six days (DIVE) that correspond to PN15, i.e. the peak of degeneration in in vivo aged-matched mutants. The day of birth was denoted as P0. For radial sections, cultures were immersed in 4% paraformaldehyde in 0.1 M phosphate buffer (PB; pH 7.4) for 30 minutes at 4° C. and embedded in cryomatrix (Tissue-Tek, Leica, Bensheim, Germany). The radial sections (15 μm thick) were processed immediately or stored at […]
# The retinas were isolated from nine-days-old P23H rats with the retinal pigment epithelium (RPE) attached essentially as described previously in Caffe et al. (2001), “Mouse retina explants after long-term culture in serum free medium”, J. Chem. Neuroanat. 22(4): 263-73, and Arango-Gonzalez et al. (2010), “In vivo and in vitro devel-opment of S- and M-cones in rat retina”, Invest. Ophthalmol. Vis. Sci. 2010 October; 51(10):5320-7. Briefly, the eyes of decapitated rats were enucleated in aseptic environment and pretreated with 12% proteinase K (ICN Biomedicals Inc., OH, United States of America) for 15 minutes at 37° C. in R16 serum-free culture medium (Invitrogen Life Technologies, Paisley, United Kingdom). The enzymatic digestion was stopped by the addition of 20% fetal bovine serum. Retina and RPE were dissected and four radial sections were made to flatten the tissue. The tissue was transferred to a 0.5 μm polycar-bonate membrane (Corning Life Sciences, Lowell, Mass., United States of America), with the RPE facing the membrane. The inserts were placed into six well culture plates and incubated with R16 nutrient medium at 36.5° C. The retina was left in R16 culture medium without a treatment for one day to allow an adaptation to the culture conditions. The medium was changed at DIV1, DIV3, and DIV5, and the new medium either contained ML240 (1 μM or […]) or EerII (1 μM or 20 μM). Both components were pre-diluted in dimethyl sulfoxide (DMSO, Sigma). For controls, the same amount of DMSO (0.05% or 1% respectively) was diluted in culture medium. The cultures were fixed at DIVE and analyzed as radial sections. […]
Compound,reduction of percentage of TUNEL positive cells in the ONL [1],survival of photoreceptors in radial sections [1],amount of dying photoreceptors (percentage of TUNEL positive cells in the outer nuclear layer (ONL) vs total nuclei in the ONL) [2],survival of photoreceptors in radial sections [2]
"CC1(C)C(N(O)C(=O)Nc2ccc(Cl)cc2)N(c2ccc(Cl)cc2)C(=O)N1CC(=O)N/N=C/C=C/c1ccc([N+](=O)[O-])o1 (centres unmarked) [EerI, Eeyarestatin I]",not significantly,significant increase of the survival,significantly reduce,significant increase of the survival
COc1cccc2c(NCc3ccccc3)nc(-n3c(N)nc4ccccc43)nc12 [ML240],significantly,significant increase of the survival,significantly reduce,significant increase of the survival
